In patent US8969333B2, “Therapeutic compositions and methods” (The Penn State Research Foundation, priority 2010, dated 2015):

Test system: U2OS p53-shRNA cells
Test: MTT assay of U2OS cells with or without p53 depletion by shRNA
Assay type: cell-based, human
Conditions: same inhibitor concentration, p<0.02
Experimental: MTT assays are performed in U2OS cells with or without p53 depletion to analyze the role of p53 in YW3-56 mediated cell growth inhibition and autophagy.
U2OS and S-180 cells were cultured in Dulbecco modified Eagle medium (DMEM) supplemented with 10% fetal bovine serum and 1% penicillin-streptomycin in a 5% CO2 incubator. U2OS p53-shRNA and U2OS Ctrl-shRNA cells were generated as described in Li, P. et al., Regulation of p53 target gene expression by peptidylarginine deiminase 4. Mol Cell Bial 28 (15), 4745-4758 (2008). Concentrations and duration of YW3-56 treatment were performed as specified in the figures and text. For starvation assay, U2OS cells were first cultured in serum-free DMEM for 16 hr, 10% fetal bovine serum and different concentrations of YW3-56 was then added back and cells were further incubated for 8 hr before further analyses. SESN2 siRNA (Santa Cruz) and GFP siRNA (Dharmacon Inc.) were transfected into U2OS cells using the XtremeGene siRNA transfection reagents (Roche Inc.). Cells were incubated in the presence of the siRNA for 48 hr before adding YW3-56 and further incubated for 8 hr before analyses.

CN(C)c1ccc2cc(C(=O)N[C@@H](CCCNC(=N)CCl)C(=O)NCc3ccccc3)ccc2c1 [YW3-56]
efficacy on cell growth inhibition after p53 depletion: decreased significantly
